# Measured values published in PubChem BioAssay (NCI).
#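 Five concentrations, 48 hours, 96-well plates. Abbreviation: GI50, concentration required for 50% inhibition of growth. TGI marks complete inhibition of growth.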
# Key:
# Assay in all cases: inhibition of tumour cell growth, NCI panel, 48 h
# 786-0 renal = system: 786-0 renal
# A498 renal = system: A498 renal
# A549 NSCLC = system: A549 NSCLC
# ACHN renal = system: ACHN renal
# BT-549 breast = system: BT-549 breast
# CAKI-1 renal = system: CAKI-1 renal
# CCRF-CEM leukemia = system: CCRF-CEM leukemia
# COLO 205 colon = system: COLO 205 colon
# DU-145 prostate = system: DU-145 prostate
# EKVX NSCLC = system: EKVX NSCLC
# HCC-2998 colon = system: HCC-2998 colon
# HCT-116 colon = system: HCT-116 colon
# HCT-15 colon = system: HCT-15 colon
# HL-60(TB) leukemia = system: HL-60(TB) leukemia
# HOP-62 NSCLC = system: HOP-62 NSCLC
# HOP-92 NSCLC = system: HOP-92 NSCLC
# HS 578T breast = system: HS 578T breast
# IGROV1 ovarian = system: IGROV1 ovarian
# K-562 leukemia = system: K-562 leukemia
# KM12 colon = system: KM12 colon
# LOX IMVI melanoma = system: LOX IMVI melanoma
# M14 melanoma = system: M14 melanoma
# MALME-3M melanoma = system: MALME-3M melanoma
# MCF7 breast = system: MCF7 breast
# MDA-MB-231 breast = system: MDA-MB-231 breast
# MDA-MB-435 = system: MDA-MB-435
# NCI-H226 lung = system: NCI-H226 lung
# NCI-H23 lung = system: NCI-H23 lung
# NCI-H460 lung = system: NCI-H460 lung
# NCI-H522 lung = system: NCI-H522 lung
# NCI/ADR-RES ovarian = system: NCI/ADR-RES ovarian
# OVCAR-3 ovarian = system: OVCAR-3 ovarian
# OVCAR-4 ovarian = system: OVCAR-4 ovarian
# OVCAR-5 ovarian = system: OVCAR-5 ovarian
# OVCAR-8 ovarian = system: OVCAR-8 ovarian
# PC-3 prostate = system: PC-3 prostate
# RPMI-8226 leukemia = system: RPMI-8226 leukemia
# RXF 393 renal = system: RXF 393 renal
# SF-268 CNS = system: SF-268 CNS
# SF-295 CNS = system: SF-295 CNS
# SF-539 CNS = system: SF-539 CNS
# SK-MEL-2 melanoma = system: SK-MEL-2 melanoma
# SK-MEL-28 melanoma = system: SK-MEL-28 melanoma
# SK-MEL-5 melanoma = system: SK-MEL-5 melanoma
# SK-OV-3 ovarian = system: SK-OV-3 ovarian
# SN12C renal = system: SN12C renal
# SNB-19 CNS = system: SNB-19 CNS
# SNB-75 CNS = system: SNB-75 CNS
# SR leukemia = system: SR leukemia
# SW-620 colon = system: SW-620 colon
# T-47D breast = system: T-47D breast
# TK-10 renal = system: TK-10 renal
# U251 CNS = system: U251 CNS
# UACC-257 melanoma = system: UACC-257 melanoma
# UACC-62 melanoma = system: UACC-62 melanoma
# UO-31 renal = system: UO-31 renal
structure (smiles),measurement,setting,value
Oc1c(Cl)cc(Cl)c2ccc(Cn3cc(-c4cc(F)cc(F)c4)nn3)nc12,GI50,786-0 renal,2.09 µM
same,TGI,786-0 renal,4.84 µM
same,GI50,A498 renal,5.78 µM
same,TGI,A498 renal,19.6 µM
same,GI50,A549 NSCLC,18.8 µM
same,TGI,A549 NSCLC,38.4 µM
same,GI50,ACHN renal,1.73 µM
same,TGI,ACHN renal,3.14 µM
same,GI50,BT-549 breast,2.51 µM
same,TGI,BT-549 breast,9.49 µM
same,GI50,CAKI-1 renal,1.78 µM
same,TGI,CAKI-1 renal,4 µM
same,GI50,CCRF-CEM leukemia,0.832 µM
same,TGI,CCRF-CEM leukemia,> 100 µM
same,GI50,COLO 205 colon,2.06 µM
same,TGI,COLO 205 colon,4.04 µM
same,GI50,DU-145 prostate,2.14 µM
same,TGI,DU-145 prostate,4.6 µM
same,GI50,EKVX NSCLC,11.7 µM
same,TGI,EKVX NSCLC,25.5 µM
same,GI50,HCC-2998 colon,13.3 µM
same,TGI,HCC-2998 colon,29.1 µM
same,GI50,HCT-116 colon,1.61 µM
same,TGI,HCT-116 colon,3.53 µM
same,GI50,HCT-15 colon,2.21 µM
same,TGI,HCT-15 colon,5.42 µM
same,GI50,HL-60(TB) leukemia,2.08 µM
same,TGI,HL-60(TB) leukemia,5.78 µM
same,GI50,HOP-62 NSCLC,17.4 µM
same,TGI,HOP-62 NSCLC,34.9 µM
same,GI50,HOP-92 NSCLC,1.63 µM
same,TGI,HOP-92 NSCLC,4.37 µM
same,GI50,HS 578T breast,3.22 µM
same,TGI,HS 578T breast,20 µM
same,GI50,IGROV1 ovarian,1.82 µM
same,TGI,IGROV1 ovarian,4.18 µM
same,GI50,K-562 leukemia,1.09 µM
same,TGI,K-562 leukemia,> 100 µM
same,GI50,KM12 colon,16.3 µM
same,TGI,KM12 colon,32.1 µM
same,GI50,LOX IMVI melanoma,1.31 µM
same,TGI,LOX IMVI melanoma,2.68 µM
same,GI50,M14 melanoma,2.02 µM
same,TGI,M14 melanoma,4.92 µM
same,GI50,MALME-3M melanoma,1.84 µM
same,TGI,MALME-3M melanoma,3.74 µM
same,GI50,MCF7 breast,1.54 µM
same,TGI,MCF7 breast,3.62 µM
same,GI50,MDA-MB-231 breast,2.71 µM
same,TGI,MDA-MB-231 breast,8.65 µM
same,GI50,MDA-MB-435,2.8 µM
same,TGI,MDA-MB-435,8.47 µM
same,GI50,NCI-H226 lung,10 µM
same,TGI,NCI-H226 lung,29 µM
same,GI50,NCI-H23 lung,3.5 µM
same,TGI,NCI-H23 lung,12.8 µM
same,GI50,NCI-H460 lung,18.8 µM
same,TGI,NCI-H460 lung,35.8 µM
same,GI50,NCI-H522 lung,1.72 µM
same,TGI,NCI-H522 lung,4.83 µM
same,GI50,NCI/ADR-RES ovarian,24.1 µM
same,TGI,NCI/ADR-RES ovarian,85.3 µM
same,GI50,OVCAR-3 ovarian,1.66 µM
same,TGI,OVCAR-3 ovarian,3.2 µM
same,GI50,OVCAR-4 ovarian,1.87 µM
same,TGI,OVCAR-4 ovarian,4.43 µM
same,GI50,OVCAR-5 ovarian,4.01 µM
same,TGI,OVCAR-5 ovarian,15.4 µM
same,GI50,OVCAR-8 ovarian,3.42 µM
same,TGI,OVCAR-8 ovarian,27.2 µM
same,GI50,PC-3 prostate,5.26 µM
same,TGI,PC-3 prostate,18.8 µM
same,GI50,RPMI-8226 leukemia,2.19 µM
same,TGI,RPMI-8226 leukemia,6.36 µM
same,GI50,RXF 393 renal,1.36 µM
same,TGI,RXF 393 renal,2.99 µM
same,GI50,SF-268 CNS,11.3 µM
same,TGI,SF-268 CNS,30.3 µM
same,GI50,SF-295 CNS,17.8 µM
same,TGI,SF-295 CNS,32.9 µM
same,GI50,SF-539 CNS,1.63 µM
same,TGI,SF-539 CNS,3.08 µM
same,GI50,SK-MEL-2 melanoma,5.19 µM
same,TGI,SK-MEL-2 melanoma,20.2 µM
same,GI50,SK-MEL-28 melanoma,2.01 µM
same,TGI,SK-MEL-28 melanoma,4.18 µM
same,GI50,SK-MEL-5 melanoma,4.1 µM
same,TGI,SK-MEL-5 melanoma,14.9 µM
same,GI50,SK-OV-3 ovarian,17 µM
same,TGI,SK-OV-3 ovarian,31.9 µM
same,GI50,SN12C renal,4.21 µM
same,TGI,SN12C renal,16.2 µM
same,GI50,SNB-19 CNS,11.9 µM
same,TGI,SNB-19 CNS,25.1 µM
same,GI50,SNB-75 CNS,2.07 µM
same,TGI,SNB-75 CNS,11.8 µM
same,GI50,SR leukemia,2.87 µM
same,TGI,SR leukemia,> 100 µM
same,GI50,SW-620 colon,1.49 µM
same,TGI,SW-620 colon,3.35 µM
same,GI50,T-47D breast,2.27 µM
same,TGI,T-47D breast,7.17 µM
same,GI50,TK-10 renal,2.1 µM
same,TGI,TK-10 renal,4.23 µM
same,GI50,U251 CNS,7.38 µM
same,TGI,U251 CNS,21.2 µM
same,GI50,UACC-257 melanoma,1.76 µM
same,TGI,UACC-257 melanoma,4.83 µM
same,GI50,UACC-62 melanoma,3.39 µM
same,TGI,UACC-62 melanoma,14.4 µM
same,GI50,UO-31 renal,2.06 µM
same,TGI,UO-31 renal,9.93 µM
